Legend:
[1] = target: muscarinic receptors (cerebral cortex); assay: Binding to muscarinic receptors, 3H-N-methylscopolamine displacement, cerebral cortex; parameters: species or system rat (male Sprague-Dawley); details: rat cerebral cortex homogenate 1:3000, 0.3 n molar 3H-NMS, pH 7.4, 30° C., 45 minutes; read-out: Receptor binding tests IC50 Cortex
Procedure: (§1) 2. Studies of Binding to Muscarinic Receptors: Determination of the IC50 value
(§2) The organ donors were male Sprague-Dawley rats with a body weight of from 180 to 220 gm. After the heart, stomach and cerebral cortex had been removed, the remainder of the operation was carried out in ice-cold Hepes-HCl buffer (pH 7.4; 100 m molar NaCl, 10 m molar MgCl2). The smooth muscle of the fundus of the stomach was separated from the mucous membrane of the stomach and subjected to preliminary homogenization. The whole heart was cut up with scissors. All the organs were then homogenized in a Potter apparatus.
(§3) For the binding test, the homogenized organs were diluted as follows:
(§4) The homogenized organ preparations were incubated at a specific concentration of the radioligand and with a series of concentrations of the non-radioactive test substances in an Eppendorf centrifuge tube at 30° C. The duration of incubation was 45 minutes. 0.3 n molar ^3 H-N-methylscopolamine (^3 H-NMS) was used as the radioligand. After incubation had been brought to an end by centrifuging at 14,000 g, the radioactivity in the pellet was determined. It represents the sum of the specific and non-specific binding of ^3 H-NMS. The proportion of non-specific binding was defined as the radioactivity which was bound in the presence of 1μ molar quinuclidinyl benzylate. Four measurements were taken in each case. The IC50 values of the nonlabelled test substances were determined graphically. They represent the concentration of test substance at which the specific binding of ^3 H-NMS to the muscarinic receptors in the various organs was inhibited by 50%.

[2] = target: muscarinic receptors (smooth muscle of the fundus of the stomach); assay: Binding to muscarinic receptors, 3H-N-methylscopolamine displacement, smooth muscle of fundus of stomach; parameters: species or system rat (male Sprague-Dawley); details: rat stomach fundus smooth muscle homogenate 1:100, 0.3 n molar 3H-NMS, pH 7.4, 30° C., 45 minutes; read-out: Receptor binding tests IC50 Smooth muscle fundus of stomach
Procedure: as §1, §2, §3
Smooth muscle of the fundus of the stomach--1: 100
as §4

[3] = target: T1, muscarinic receptors (heart) (Rattus norvegicus, UniProt P10980); assay: Binding to muscarinic receptors, 3H-N-methylscopolamine displacement, whole heart; parameters: species or system rat (male Sprague-Dawley); details: rat whole heart homogenate 1:250, 0.3 n molar 3H-NMS, pH 7.4, 30° C., 45 minutes; read-out: Receptor binding tests IC50 Heart
T1 construct: All the organs were then homogenized in a Potter apparatus; from tissue; host or cells: whole heart of male Sprague-Dawley rats, homogenate diluted 1:250
T1 sequence (P10980 1-466): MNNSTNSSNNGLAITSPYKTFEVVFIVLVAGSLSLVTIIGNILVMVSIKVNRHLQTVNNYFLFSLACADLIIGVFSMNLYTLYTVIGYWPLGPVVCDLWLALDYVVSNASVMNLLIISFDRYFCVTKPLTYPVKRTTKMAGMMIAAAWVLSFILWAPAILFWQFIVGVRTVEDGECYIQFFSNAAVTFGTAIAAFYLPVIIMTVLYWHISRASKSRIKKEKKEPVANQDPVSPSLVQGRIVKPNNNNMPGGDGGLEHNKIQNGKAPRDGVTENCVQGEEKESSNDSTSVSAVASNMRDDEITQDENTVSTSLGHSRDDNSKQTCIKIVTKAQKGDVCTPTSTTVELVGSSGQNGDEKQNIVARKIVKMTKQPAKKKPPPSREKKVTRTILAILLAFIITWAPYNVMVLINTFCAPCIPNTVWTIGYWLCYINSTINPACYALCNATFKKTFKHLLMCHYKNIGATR
Procedure: as §1, §2, §3, §4

[4] = test system: oxotremorine-induced lesions in mucous membrane of stomach (muscarinic receptors); assay: Oxotremorine test: protection against oxotremorine-induced lesions of the gastric mucous membrane (anti-ulcerogenic effect); assay type: in vivo, rat (female albino, Crl:COBS-CD (SD) BR); details: iv, rat, 0.62 mg/kg i.v. oxotremorine, 1 mg/kg oral neostigmine; for ED50: ED50, i.v.; for ED70: ED70, i.v.
Text: (§5) Investigation of the Selectivity of the Antimuscarinic Activity
(§6) Oxotremorine, a specific agonist for muscarinic receptors, produces lesions in the mucous membrane of the stomach in rats and increases their secretion of saliva. This test method was chosen so that any selective activity of an antimuscarinic substance on the stomach could be identified.
(§7) Ten female albino rats (of the Crl:COBS-CD (SD) BR strain) with a body weight of from 120 to 150 gm were used in each treatment group and were kept without food for 24 hours before the start of the test, but given free access to drinking water.
(§8) In order to determine, in preliminary tests, the muscarinic effect of oxotremorine on each of the symptoms studied, a dosage/activity curve was drawn up with at least three dosages for each symptom.
(§9) When testing the antimuscarinic substances, the dosage of oxotremorine which triggered the symptom in question in 90 to 100% of the animals in the preliminary tests was used.
Lesion in mucous membrane of stomach: 0.62 mg/kg i.v.
Each antimuscarinic substance was administered intravenously in uniformly graduated doses 15 minutes before the oxotremorine was administered. Control groups were given corresponding quantities of the solvent and suspending agent instead of the test substance.
(§10) The ED50 values were determined using the method described by LITCHFIELD and WILCOXON [J. Pharmacol. Exp.Ther. 96, 99, (1949)].
The effects on lesions of the mucous membrane of the stomach were evaluated as follows:
The lesions of the gastric mucous membrane were produced by intravenous injection of 0.62 mg/kg of oxotremorin 30 minutes after the oral administration of 1 mg/kg of neostigmine (a cholinesterase inhibitor). 60 minutes after the administration of the neostigmine, the animals were killed, the stomachs were removed, opened and examined for the presence of any lesions in the mucous membrane. The protective effect of the test substances was expressed as the percentage inhibition (percentage of animals without lesions). The ED50 and ED70 values were determined using the method of LITCHFIELD and WILCOXON (supra).

[5] = test system: oxotremorine-induced secretion of saliva (muscarinic receptors); assay: Oxotremorine test: inhibition of oxotremorine-induced secretion of saliva; assay type: in vivo, rat (female albino, Crl:COBS-CD (SD) BR); details: iv, 0.25 h; i.v., rat, 15 minutes before 0.083 mg/kg i.v. oxotremorine; read-out: Oxotremorine test Inhibition of salivation ED50
Text: as §5, §6, §7, §8, §9
Secretion of saliva: 0.083 mg/kg i.v.
Each antimuscarinic substance was administered intravenously in uniformly graduated doses 15 minutes before the oxotremorine was administered. Control groups were given corresponding quantities of the solvent and suspending agent instead of the test substance. […]
as §10

[6] = Mydriasis: effect on pupil size in rats; details: in vivo, iv, rat, pupil size observed for 10 minutes
Procedure: The effect of the test substances on the pupil size in rats was investigated as follows:
The substances were administered intravenously to groups of 10 animals in at least three uniformly graduated doses. […] The percentage of test animals in which mydriasis occurred was determined. The ED50 values were again determined using the method of LITCHFIELD and WILCOXON (supra).

With CN1CCC(OC(=O)N2c3ccccc3NC(=O)c3cscc32)CC1 [A, 4,9-Dihydro-4-{[(1-methyl-4-piperidinyl)oxy]carbonyl}-10H-thieno[3,4-b][1,5]benzodiazepin-10-one] the IC50 [1] was 0.04 µM, the IC50 [2] was 0.2 µM and the IC50 [3] was 0.18 µM. It also gave an ED50 [4] of 0.017 mg/kg, an ED70 [4] of 0.025 mg/kg and an ED50 [5] of 0.1 mg/kg. It also gave an ED50 at 10 min [6] of 0.11 mg/kg.
CN1CCC(NC(=O)N2c3ccccc3NC(=O)c3cscc32)CC1 [B, 4,9-Dihydro-4-{[(1-methyl-4-piperidinyl)amino]carbonyl}-10H-thieno[3,4-b][1,5]benzodiazepin-10-one] gave an IC50 [1] of 0.03 µM, an IC50 [2] of 0.3 µM and an IC50 [3] of 0.22 µM. For the same compound, the ED50 [4] was 0.017 mg/kg, the ED70 [4] was 0.044 mg/kg and the ED50 [5] was 0.04 mg/kg. It also gave an ED50 at 10 min [6] of 0.037 mg/kg.
CN1CCN(NC(=O)N2c3ccccc3NC(=O)c3cscc32)CC1 [C, 4,9-Dihydro-4-{[(4-methyl-1-piperazinyl)amino]carbonyl}-10H-thieno[3,4-b][1,5]benzodiazepin-10-one] showed an IC50 [1] of 0.02 µM, an IC50 [2] of 0.2 µM and an IC50 [3] of 0.09 µM. It also gave an ED70 [4] of 0.019 mg/kg and an ED50 at 10 min [6] of 0.03 mg/kg.
